For orientation: Ki means a dissociation constant, usually derived from enzyme kinetics or from competition with a known ligand.

T1 sequence (P35462 whole entry): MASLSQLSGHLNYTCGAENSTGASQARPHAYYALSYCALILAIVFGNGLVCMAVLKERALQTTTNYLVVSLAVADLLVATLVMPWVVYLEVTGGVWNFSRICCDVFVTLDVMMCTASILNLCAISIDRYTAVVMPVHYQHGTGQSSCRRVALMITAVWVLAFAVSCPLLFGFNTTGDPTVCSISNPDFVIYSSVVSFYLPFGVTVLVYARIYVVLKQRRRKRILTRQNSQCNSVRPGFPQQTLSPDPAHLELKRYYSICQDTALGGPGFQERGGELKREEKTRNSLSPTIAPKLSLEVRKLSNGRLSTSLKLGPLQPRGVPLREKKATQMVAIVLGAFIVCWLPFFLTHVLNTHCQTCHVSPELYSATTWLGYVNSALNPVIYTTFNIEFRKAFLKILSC

This assay has as its target T1, human D3 dopamine receptor (Homo sapiens, UniProt P35462).
T1 construct: expressed in transfected cells; host or cells: HEK-293 EBNA cells, transient transfection; membrane homogenate
The assay is described as follows: radioligand binding ([3H]-spiperone) to human D3 receptor membranes. The conditions noted are these: [3H]-spiperone displacement, membranes of HEK-293 EBNA cells transiently expressing human D3. As to the method: The ability of the compounds to bind to the D3 receptors was determined using radioligand binding to cloned receptors selectively expressed in HEK-293 EBNA cells.
HEK-293 EBNA cells were transiently transfected with expression plasmids encoding for the human D3 dopamine receptor. The cells were harvested 48 h post-transfection, washed three times with cold PBS and stored at −80° C. prior to use. The pellet was suspended in cold 50 mM Tris-HCl buffer containing 10 mM EDTA (pH 7.4) and homogenized with a Polytron (Kinematica AG, Basel, Switzerland) for 20-30 sec at 12.000 rpm. After centrifugation at 48.000×g for 30 mM at 4° C., the pellet was resuspended in cold 10 mM Tris-HCl buffer containing 0.1 mM EDTA (pH 7.4), homogenized, and centrifuged as above. This pellet was further resuspended in a smaller volume of ice cold 10 mM Tris-HCl buffer containing 0.1 mM EDTA (pH 7.4) and homogenized with a Polytron for 20-30 sec at 12.000 rpm. The protein content of this homogenate was determined with the Bio-Rad (radford) Protein Assay (Biorad Laboratories GmbH, München, Germany) according to the instructions of the manufacturer using gamma globulin as the standard. This homogenate was stored at −80° C. in aliquots and thawed immediately prior to use.
Aliquots of membrane preparations were thawed at RT, resuspended in assay buffer (50 mM Tris-HCl, 120 mM NaCl, 5 mM MgCl2, 1 mM E TA, 5 mM KCl, 1.5 mM CaCl2, pH=7.4), homogenized with a Polytron for 20-30 sec at 12.000 rpm and adjusted to a final concentration of approximately 7.5 μg protein/well.
The binding affinity (Ki) of the compounds was determined using radioligand binding. Membranes were incubated in a total volume of 200 with a fixed concentration of radioligand (final concentration approximately 0.5 nM [^3H]-spiperone) and ten concentrations of test compound in ranging between 10 μM-0.1 nM for 1 at RT. At the end of the incubation, the reaction mixtures were filtered on to unifilter 96-well white microplates with bonded GF/C filters (Packard BioScience, Zürich, Switzerland; preincubated for 1 h in 0.1% polyethylenimine (PEI) in assay buffer) with a Filtermate 196 harvester (Pack rd BioScience) and washed 3 times with cold assay buffer. The nonspecific binding was determined with equally composed reaction mixtures in the presence of 10 μM unlabelled spiperone. Per well 45 μl of Microscint 40 (Perkin Elmer, Schwerzenbach, Switzerland) was added, plate, for sealed, shaken for 20 mM and counted for 3 mM on a Topcount Microplate Scintillation Counter (Canberra Packard SA, Zürich, Switzerland) with quenching correction.
The CPM value for each duplicate of a concentration of competing compound was averaged (y1), then the % specific binding was calculated according to the equation (((y1−non-specific)/(total binding-non-specific))×100). Graphs were plotted with the % specific binding using XLfit, a curve fitting program that iteratively plots the data using Levenburg Marquardt algorithm. The single site competition analysis equation used was y=A+((B−A)/(1+((x/C)^D))), where y is the % specific binding, A is the minimum y, B is the maximum y, C is the IC50, x is the log10 of the concentration of the competing compound and D is the slope of the curve (the Hill Coefficient). From these curves the IC50 (inhibition concentration at which 50% specific binding of the radioligand was displaced) and Hill coefficient were determined. The affinity constant (Ki) was calculated using the Cheng-Prusoff equation Ki=(IC50/1+([L]/Kd), where [L] is the concentration of radioligand and Kd is the dissociation constant of the radioligand at the receptor as determined by the saturation isotherm.
`CC(=O)N[C@H]1CC[C@H](CCN2CCN(c3noc4c(F)cc(F)cc34)CC2)CC1` [Example 1, N-(trans-4-{2-[4-(5,7-Difluoro-benzo[d]isoxazol-3-yl)-piperazin-1-yl]-ethyl}-cyclohexyl)-acetamide]: the Ki stood at 3.7 nM.

For `O=C(CO)N[C@H]1CC[C@H](CCN2CCN(c3noc4c(F)cc(F)cc34)CC2)CC1` [Example 2, N-(trans-4-{2-[4-(5,7-Difluoro-benzo[d]isoxazol-3-yl)-piperazin-1-yl]-ethyl}-cyclohexyl)-2-hydroxy-acetamide], the Ki turned out to be 3.88 nM.

For the molecule `COCC(=O)N[C@H]1CC[C@H](CCN2CCN(c3noc4c(F)cc(F)cc34)CC2)CC1` [Example 3, N-(trans-4-{2-[4-(5,7-Difluoro-benzo[d]isoxazol-3-yl)-piperazin-1-yl]-ethyl}-cyclohexyl)-2-methoxy-acetamide], the Ki stood at 15.6 nM.

Turning to `COCCC(=O)N[C@H]1CC[C@H](CCN2CCN(c3noc4c(F)cc(F)cc34)CC2)CC1` [Example 4, N-(trans-4-{2-[4-(5,7-Difluoro-benzo[d]isoxazol-3-yl)-piperazin-1-yl]-ethyl}-cyclohexyl)-3-methoxy-propionamide], the Ki was found to be 3.66 nM.

On to `CO[C@H]1CC[C@H](CC(=O)N[C@H]2CC[C@H](CCN3CCN(c4noc5c(F)cc(F)cc45)CC3)CC2)CC1` [Example 5, N-(trans-4-{2-[4-(5,7-Difluoro-benzo[d]isoxazol-3-yl)-piperazin-1-yl]-ethyl}-cyclohexyl)-2-(trans-4-methoxy-cyclohexyl)-acetamide], for which the Ki was 11.8 nM.

For `CCC(=O)N[C@H]1CC[C@H](CCN2CCN(c3noc4c(F)cc(F)cc34)CC2)CC1` [Example 6, N-(trans-4-{2-[4-(5,7-Difluoro-benzo[d]isoxazol-3-yl)-piperazin-1-yl]-ethyl}-cyclohexyl)-propionamide], the Ki came to 4.53 nM.

As to `O=C(CC1CC1)N[C@H]1CC[C@H](CCN2CCN(c3noc4c(F)cc(F)cc34)CC2)CC1` [Example 7, 2-Cyclopropyl-N-(trans-4-{2-[4-(5,7-difluoro-benzo[d]isoxazol-3-yl)-piperazin-1-yl]-ethyl}-cyclohexyl)-acetamide], the Ki amounted to 2.72 nM.

Consider `O=C(N[C@H]1CC[C@H](CCN2CCN(c3noc4c(F)cc(F)cc34)CC2)CC1)C1CCOCC1` [Example 8, Tetrahydro-pyran-4-carboxylic acid (trans-4-{2-[4-(5,7-difluoro-benzo[d]isoxazol-3-yl)-piperazin-1-yl]-ethyl}-cyclohexyl)-amide], for which the Ki is 9.81 nM.

In the case of `NC(=O)CC(=O)N[C@H]1CC[C@H](CCN2CCN(c3noc4c(F)cc(F)cc34)CC2)CC1` [Example 9, N-(trans-4-{2-[4-(5,7-Difluoro-benzo[d]isoxazol-3-yl)-piperazin-1-yl]-ethyl}-cyclohexyl)-malonamide], the Ki came to 5.94 nM.

`CC(=O)N[C@H]1CC[C@H](CCN2CCN(c3noc4ccc(F)c(F)c34)CC2)CC1` [Example 10, N-(trans-4-{2-[4-(4,5-Difluoro-benzo[d]isoxazol-3-yl)-piperazin-1-yl]-ethyl}-cyclohexyl)-acetamide]: the Ki came out at 8.57 nM.

As for `COCCC(=O)N[C@H]1CC[C@H](CCN2CCN(c3noc4ccc(F)c(F)c34)CC2)CC1` [Example 11, N-(trans-4-{2-[4-(4,5-Difluoro-benzo[d]isoxazol-3-yl)-piperazin-1-yl]-ethyl}-cyclohexyl)-3-methoxy-propionamide], the Ki stood at 9.71 nM.

(Values after patent US7939535B2, “Benzo[D]isoxazol-3-yl-piperazin derivatives useful as modulators of dopamine D3 receptors” (Hoffman-La Roche Inc., priority 2008, dated 2011).)
